Source: ChEMBL document CHEMBL1145982, “Novel dihydrofolate reductase inhibitors. Structure-based versus diversity-based library design and high-throughput synthesis and screening” (J Med Chem, 2003)
pIC50: −log10 of the molar value. Converted amounts (≈) assume the structure as drawn.

Assays:
Dihydrofolate reductase [1] = molecular target: T1, Dihydrofolate reductase (Staphylococcus aureus, UniProt P0A017); test: Inhibitory activity against TMP-Resistance Dihydrofolate reductase from Staphylococcus aureus 157/4696
T1 sequence (P0A017 2-159 limits assumed): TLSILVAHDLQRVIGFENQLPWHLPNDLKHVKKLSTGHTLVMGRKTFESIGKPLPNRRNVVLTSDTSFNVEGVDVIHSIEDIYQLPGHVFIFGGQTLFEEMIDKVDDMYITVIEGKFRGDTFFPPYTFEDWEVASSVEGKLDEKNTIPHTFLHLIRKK

Homo sapiens = species on record: Homo sapiens; test: Selectivity ratio against human and […] ATCC 49619 dihydrofolate reductase
[2] = molecular target: T2, Dihydrofolate reductase (Homo sapiens) (UniProt P00374); details: Staphylococcus; ATCC 49619
T2 sequence (whole entry): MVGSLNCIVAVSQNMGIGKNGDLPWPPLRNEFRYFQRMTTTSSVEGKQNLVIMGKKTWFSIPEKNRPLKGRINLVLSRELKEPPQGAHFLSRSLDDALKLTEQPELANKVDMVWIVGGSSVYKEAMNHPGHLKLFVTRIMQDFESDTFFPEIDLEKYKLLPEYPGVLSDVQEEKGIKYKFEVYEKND
Description: Antibacterial activity against TMP-susceptible DHFR from Staphylococcus pneumoniae ATCC 49619

[3] = molecular target: T2, Dihydrofolate reductase (Homo sapiens); details: Staphylococcus; ATCC 49619; remark: listed apart in the source
Description: Antibacterial activity of TMP-susceptible DHFR against Staphylococcus pneumoniae ATCC 49619

Dihydrofolate reductase [4] = molecular target: T1, Dihydrofolate reductase; test: Tested for inhibition of TMP-Resistant Dihydrofolate reductase from Staphylococcus aureus 157/4696.
[5] = molecular target: Dihydrofolate reductase (Staphylococcus aureus) (UniProt P0A017)
Sequence of Dihydrofolate reductase (Staphylococcus aureus) (P0A017 2-159 limits assumed): as the sequence (P0A017 2-159 limits assumed) above
Description: Tested for inhibition of TMP-Resistant Dihydrofolate reductase from Staphylococcus pneumoniae 1/1.

Dihydrofolate reductase [6] = molecular target: T1, Dihydrofolate reductase; test: Inhibitory activity of TMP-Resistance DHFR against Staphylococcus aureus 157/4696
[7] = molecular target: T2, Dihydrofolate reductase (Homo sapiens); details: Staphylococcus
Description: Inhibitory activity of TMP-Resistance Dihydrofolate reductase against Staphylococcus aureus 157/4696

[8] = molecular target: T2, Dihydrofolate reductase (Homo sapiens); details: Staphylococcus; remark: listed apart in the source
Description: Antibacterial activity against TMP-Resistant Dihydrofolate reductase from Staphylococcus aureus 157/4696

COc1cc2c(cc1OC)C(c1ccc(Cl)cc1Cl)CN(Cc1cnc(N)nc1N)C2 (centres undefined) gave a pIC50 (Dihydrofolate reductase [1]) of 5.70 and a Ratio (Homo sapiens) of 243.
COc1cc2c(c3c1OCO3)[C@@H](C)N(Cc1cnc(N)nc1N)CC2 gave a pIC50 (Dihydrofolate reductase [1]) of 5.89.
Molecule Nc1ncc(CN2CCc3c([nH]c4ccccc34)C2)c(N)n1 has a Ratio (Homo sapiens) of 45000.
With COc1cc2c(c3c1OCO3)[C@H](C)N(Cc1cnc(N)nc1N)CC2 the pIC50 (Dihydrofolate reductase [1]) was 5.27.
With CSc1c2n(c3cc(Cl)ccc13)CCN(Cc1cnc(N)nc1N)C2 the Ratio (Homo sapiens) was 2600.
Molecule COc1ccc2c(c1)CN(Cc1cnc(N)nc1N)CC2c1cccc([N+](=O)[O-])c1 (centres undefined) has a Ratio (Homo sapiens) of 16700.
COc1cc2c(cc1OC)CN(Cc1cnc(N)nc1N)CC2 gave an MIC [2] of 0.5 µg/mL (≈ 1.59 µM), an MIC [3] of 0.5 µg/mL (≈ 1.59 µM) and a pIC50 (Dihydrofolate reductase [4]) of less than 4.00. It also gave an MIC [5] greater than 32 µg/mL, a pIC50 (Dihydrofolate reductase [6]) of 4.52 and an MIC [7] of 4 µg/mL (≈ 12.7 µM). It also gave an MIC [8] of 4 µg/mL (≈ 12.7 µM).
Work on CC1c2cc(Cc3ccccc3)c(-c3ccccc3)n2CCN1Cc1cnc(N)nc1N (centres undefined) yielded a Ratio (Homo sapiens) of 40.
Nc1ncc(CN2CCc3ccccc3C2)c(N)n1 showed a pIC50 (Dihydrofolate reductase [1]) of 4.40 and a Ratio (Homo sapiens) greater than 90.
Work on CC1c2ccc3c4ccccc4n(C)c3c2CCN1Cc1cnc(N)nc1N (centres undefined) yielded a Ratio (Homo sapiens) of 21.
Molecule COc1cc2c(cc1OC)C(C)N(Cc1cnc(N)nc1N)CC2 (centres undefined) has a Ratio (Homo sapiens) of 15.
